From ChEMBL document CHEMBL1201862, “PubChem BioAssay data set” (2004)
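A five-concentration, 48-hour dose response in 96-well plates underlies each endpoint, interpolated linearly between surrounding concentrations. Abbreviation: GI50, concentration required for 50% inhibition of growth.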 The source made the active and inactive calls. Cut-off read from the data, not from the text of the source: active = GI50 up to about 1.1 µM and inactive = higher.

Key:
Assay in all cases: inhibition of tumour cell growth, NCI panel, 48 h
MDA-MB-435 = test system: MDA-MB-435
RXF 393 = test system: RXF 393
OVCAR-5 = test system: OVCAR-5
SF-539 = test system: SF-539
TK-10 = test system: TK-10
HCT-15 = test system: HCT-15
RPMI-8226 = test system: RPMI-8226
A549 = test system: A549
K562 = test system: K562
CAKI-1 = test system: CAKI-1
Malme-3M = test system: Malme-3M
M14 = test system: M14
SK-MEL-28 = test system: SK-MEL-28
HOP-92 = test system: HOP-92
Hs-578T = test system: Hs-578T
MDA-MB-231 = test system: MDA-MB-231
SK-OV-3 = test system: SK-OV-3
NCI-H23 = test system: NCI-H23
T47D = test system: T47D
UACC-257 = test system: UACC-257
SF-268 = test system: SF-268
BT-549 = test system: BT-549
SF-295 = test system: SF-295
HCT-116 = test system: HCT-116
OVCAR-4 = test system: OVCAR-4
CCRF-CEM = test system: CCRF-CEM
SNB-75 = test system: SNB-75
ACHN = test system: ACHN
DU-145 = test system: DU-145
HL-60 = test system: HL-60
SK-MEL-2 = test system: SK-MEL-2
UO-31 = test system: UO-31
U-251 = test system: U-251
SN12C = test system: SN12C
OVCAR-8 = test system: OVCAR-8
EKVX = test system: EKVX
LOX IMVI = test system: LOX IMVI
KM12 = test system: KM12
MCF7 = test system: MCF7
OVCAR-3 = test system: OVCAR-3
HCC 2998 = test system: HCC 2998
COLO 205 = test system: COLO 205
SW-620 = test system: SW-620
HOP-62 = test system: HOP-62
HT-29 = test system: HT-29
786-0 = test system: 786-0
MOLT-4 = test system: MOLT-4
A498 = test system: A498
NCI-H522 = test system: NCI-H522
SR = test system: SR
SNB-19 = test system: SNB-19
UACC-62 = test system: UACC-62
NCI-H226 = test system: NCI-H226
PC-3 = test system: PC-3
NCI-H460 = test system: NCI-H460
MDA-N = test system: MDA-N
SK-MEL-5 = test system: SK-MEL-5
IGROV-1 = test system: IGROV-1
NCI/ADR-RES = test system: NCI/ADR-RES

SMILES: CC1(C)OC[C@@H]([C@@]2(COC(c3ccccc3)(c3ccccc3)c3ccccc3)CC=CC(=O)O2)O1
- GI50 (MDA-MB-435): 33.1 µM (inactive)
- GI50 (RXF 393): 24.2 µM (inactive)
- GI50 (OVCAR-5): 42.9 µM (inactive)
- GI50 (SF-539): 37.2 µM (inactive)
- GI50 (TK-10): 46.5 µM (inactive)
- GI50 (HCT-15): 31.1 µM
- GI50 (RPMI-8226): 23.4 µM (inactive)
- GI50 (A549): 40.7 µM (inactive)
- GI50 (K562): 32.8 µM (inactive)
- GI50 (CAKI-1): 30.6 µM (inactive)
- GI50 (Malme-3M): 24.7 µM (inactive)
- GI50 (M14): 39.7 µM (inactive)
- GI50 (SK-MEL-28): 32 µM (inactive)
- GI50 (HOP-92): 19.4 µM (inactive)
- GI50 (Hs-578T): 46.9 µM (inactive)
- GI50 (MDA-MB-231): 41.7 µM (inactive)
- GI50 (SK-OV-3): 38.8 µM (inactive)
- GI50 (NCI-H23): 42.1 µM (inactive)
- GI50 (T47D): 48.5 µM (inactive)
- GI50 (UACC-257): 43.5 µM (inactive)
- GI50 (SF-268): 45.5 µM (inactive)
- GI50 (BT-549): 24.2 µM (inactive)
- GI50 (SF-295): 36.5 µM (inactive)
- GI50 (HCT-116): 30.3 µM (inactive)
- GI50 (OVCAR-4): 28.2 µM (inactive)
- GI50 (CCRF-CEM): 33.3 µM (inactive)
- GI50 (SNB-75): 14.2 µM (inactive)
- GI50 (ACHN): 30.5 µM (inactive)
- GI50 (DU-145): 56.2 µM (inactive)
- GI50 (HL-60): 33.7 µM (inactive)
- GI50 (SK-MEL-2): 11.2 µM (inactive)
- GI50 (UO-31): 32.4 µM (inactive)
- GI50 (U-251): 48.9 µM (inactive)
- GI50 (SN12C): 30.8 µM (inactive)
- GI50 (OVCAR-8): 33.6 µM (inactive)
- GI50 (EKVX): 30.9 µM (inactive)
- GI50 (LOX IMVI): 32.4 µM (inactive)
- GI50 (KM12): 27.9 µM (inactive)
- GI50 (MCF7): 21.8 µM (inactive)
- GI50 (OVCAR-3): 35.2 µM (inactive)
- GI50 (HCC 2998): 19 µM (inactive)
- GI50 (COLO 205): 20.1 µM (inactive)
- GI50 (SW-620): 40.1 µM (inactive)
- GI50 (HOP-62): 38.5 µM (inactive)
- GI50 (HT-29): 35 µM (inactive)
- GI50 (786-0): 35.1 µM (inactive)
- GI50 (MOLT-4): 28.3 µM (inactive)
- GI50 (A498): 22 µM (inactive)
- GI50 (NCI-H522): 18.4 µM (inactive)
- GI50 (SR): 33 µM (inactive)
- GI50 (SNB-19): 58.3 µM (inactive)
- GI50 (UACC-62): 28 µM (inactive)
- GI50 (NCI-H226): 32.7 µM (inactive)
- GI50 (PC-3): 41.3 µM (inactive)
- GI50 (NCI-H460): 32.1 µM (inactive)

SMILES: Cc1ccc(S(=O)(=O)OC2CC(C(C)(C)C)CCC2c2ccccc2)cc1 (centres undefined)
- GI50 (MDA-MB-435): 66.1 µM (inactive)
- GI50 (RXF 393): 89.7 µM (inactive)
- GI50 (OVCAR-5): > 100 µM (inactive)
- GI50 (SF-539): > 100 µM (inactive)
- GI50 (TK-10): > 100 µM (inactive)
- GI50 (HCT-15): > 100 µM
- GI50 (RPMI-8226): 17.9 µM (inactive)
- GI50 (A549): 40.6 µM (inactive)
- GI50 (MDA-N): 99.8 µM (inactive)
- GI50 (SK-MEL-5): 79.8 µM (inactive)
- GI50 (K562): 53.5 µM (inactive)
- GI50 (CAKI-1): 66.1 µM (inactive)
- GI50 (M14): 88.7 µM (inactive)
- GI50 (SK-MEL-28): > 100 µM (inactive)
- GI50 (HOP-92): 23.3 µM (inactive)
- GI50 (MDA-MB-231): > 100 µM (inactive)
- GI50 (SK-OV-3): > 100 µM (inactive)
- GI50 (IGROV-1): 72.8 µM (inactive)
- GI50 (NCI-H23): > 100 µM (inactive)
- GI50 (T47D): 53.7 µM (inactive)
- GI50 (UACC-257): 29 µM (inactive)
- GI50 (BT-549): > 100 µM (inactive)
- GI50 (SF-295): 42.1 µM (inactive)
- GI50 (HCT-116): 50 µM (inactive)
- GI50 (OVCAR-4): 34.9 µM (inactive)
- GI50 (SNB-75): 27.9 µM (inactive)
- GI50 (ACHN): 54.6 µM (inactive)
- GI50 (DU-145): > 100 µM (inactive)
- GI50 (NCI/ADR-RES): > 100 µM (inactive)
- GI50 (HL-60): > 100 µM (inactive)
- GI50 (SK-MEL-2): > 100 µM (inactive)
- GI50 (UO-31): > 100 µM (inactive)
- GI50 (U-251): 50.1 µM (inactive)
- GI50 (SN12C): > 100 µM (inactive)
- GI50 (OVCAR-8): > 100 µM (inactive)
- GI50 (EKVX): > 100 µM (inactive)
- GI50 (LOX IMVI): > 100 µM (inactive)
- GI50 (KM12): 99.8 µM (inactive)
- GI50 (MCF7): 35.1 µM (inactive)
- GI50 (OVCAR-3): 93.5 µM (inactive)
- GI50 (COLO 205): > 100 µM (inactive)
- GI50 (SW-620): > 100 µM (inactive)
- GI50 (HOP-62): 53 µM (inactive)
- GI50 (HT-29): 32.1 µM (inactive)
- GI50 (786-0): > 100 µM (inactive)
- GI50 (MOLT-4): 44.6 µM (inactive)
- GI50 (A498): > 100 µM (inactive)
- GI50 (SR): 23.6 µM (inactive)
- GI50 (SNB-19): 86.7 µM (inactive)
- GI50 (UACC-62): 57.5 µM (inactive)
- GI50 (NCI-H226): > 100 µM (inactive)
- GI50 (PC-3): 70 µM (inactive)
- GI50 (NCI-H460): 78.7 µM (inactive)

SMILES: S=C(Nc1ccccc1)N(Cc1ccccc1)c1ccccc1
- GI50 (MDA-MB-435): 20.3 µM (inactive)
- GI50 (RXF 393): 22.6 µM (inactive)
- GI50 (OVCAR-5): > 100 µM (inactive)
- GI50 (SF-539): 17.7 µM (inactive)
- GI50 (TK-10): 29.7 µM (inactive)
- GI50 (HCT-15): 40.4 µM
- GI50 (RPMI-8226): 34.9 µM (inactive)
- GI50 (A549): 29.8 µM (inactive)
- GI50 (SK-MEL-5): 13.8 µM (inactive)
- GI50 (K562): 29.7 µM (inactive)
- GI50 (CAKI-1): 24.2 µM (inactive)
- GI50 (Malme-3M): 11.2 µM (inactive)
- GI50 (M14): 40.1 µM (inactive)
- GI50 (SK-MEL-28): 17.4 µM (inactive)
- GI50 (HOP-92): 29.9 µM (inactive)
- GI50 (Hs-578T): 20 µM (inactive)
- GI50 (MDA-MB-231): 45.6 µM (inactive)
- GI50 (SK-OV-3): > 100 µM (inactive)
- GI50 (IGROV-1): 44.4 µM (inactive)
- GI50 (NCI-H23): > 100 µM (inactive)
- GI50 (T47D): 56 µM (inactive)
- GI50 (UACC-257): 22.4 µM (inactive)
- GI50 (SF-268): 34.8 µM (inactive)
- GI50 (BT-549): 0.34 µM (active)
- GI50 (SF-295): 34.3 µM (inactive)
- GI50 (HCT-116): 40.1 µM (inactive)
- GI50 (OVCAR-4): 23.7 µM (inactive)
- GI50 (CCRF-CEM): 28.4 µM (inactive)
- GI50 (SNB-75): 22.5 µM (inactive)
- GI50 (ACHN): 35 µM (inactive)
- GI50 (DU-145): 6.75 µM (inactive)
- GI50 (NCI/ADR-RES): > 100 µM (inactive)
- GI50 (HL-60): 27.8 µM (inactive)
- GI50 (SK-MEL-2): 17.3 µM (inactive)
- GI50 (UO-31): 29.3 µM (inactive)
- GI50 (U-251): 42.6 µM (inactive)
- GI50 (SN12C): 44.1 µM (inactive)
- GI50 (EKVX): 17.5 µM (inactive)
- GI50 (LOX IMVI): 33 µM (inactive)
- GI50 (KM12): 21.2 µM (inactive)
- GI50 (MCF7): 33.7 µM (inactive)
- GI50 (OVCAR-3): 30.2 µM (inactive)
- GI50 (HCC 2998): > 100 µM (inactive)
- GI50 (COLO 205): 23.3 µM (inactive)
- GI50 (SW-620): 13.7 µM (inactive)
- GI50 (HOP-62): 49.3 µM (inactive)
- GI50 (HT-29): 22.5 µM (inactive)
- GI50 (786-0): 74.3 µM (inactive)
- GI50 (MOLT-4): 25.5 µM (inactive)
- GI50 (A498): 14.6 µM (inactive)
- GI50 (NCI-H522): 21 µM (inactive)
- GI50 (SR): 20.5 µM (inactive)
- GI50 (SNB-19): 80.2 µM (inactive)
- GI50 (UACC-62): 21.6 µM (inactive)
- GI50 (NCI-H226): 35.7 µM (inactive)
- GI50 (NCI-H460): 28.6 µM (inactive)
